Measurements taken from US6218384A, “3-Oxo-pyrido(1,2-a)benzimidazole-4-carboxyl and 4-oxo-azepino(1,2-a)benzimidazole-5-carboxyl derivatives useful in treating central nervous system disorders” (Ortho-McNeil Pharmaceutical, Inc., priority 1997, dated 2001).
pIC50: −log10 of the molar value. Where two headings read alike, the source gives them in different places.

Experiments:
[1] = Suppression of anxiety (punished licking, conflict test) in the adult male rat; format: in vivo, male rats
Procedure: The anxiolytic activity of selected compounds of the invention was assessed by determining their ability to release (disinhibit) behavior that had been suppressed by punishment (Vogel, J. R. et al. Psychopharmacology 1971, 21, 1). Male rats were deprived of water for 48 hours and were deprived of food for 24 hours prior to testing. After the first 24 hours of water deprivation, they were placed in the conflict chamber for a training period; wherein, they were allowed 200 unpunished licks from a bottle containing tap water. The experiment was run the next day. At the expected time of peak activity, the animals were placed in the chamber and allowed access to tap water. […] Their first lick initiates a 3-min test session. Subsequently,every 20th lick was punished by a 0.2-s shock delivered via the stainless-steel drinking-tube. Vehicle-treated control animals generally were willing to accept a median number of 3 to 8 shocks per test session. […] The Wilcoxon rank-sum test (Mann-WhitneyU-test) was used to test for an increase (p<0.05, 1-tailed) in the median number of shocks in drug-treated groups, compared to a concurrently run vehicle-treated group. The biological assay is considered to be valid if the effects of a known anxiolytic (positive control) are detected, within the same experiment. A compound was considered active if there is a significant difference in the median number of shocks tolerated between the drug-treated group and the control group. The MED was defined as the minimum dose of the drug-treatment as analyzed using the Wilcoxon rank-sum test (SAS; Statistical Analysis System, version 5.16). If the MED value is greater than 10, an active dose of the compound being tested had not been determined.

[2] = target: benzodiazepine site of the GABA-A receptor; experiment: Benzodiazepine Receptor Binding Assay (inhibition of 3H-flunitrazepam binding); settings: ca. 3 nM 3H-flunitrazepam
[3] = Suppression of metrazol-induced convulsions; format: in vivo, male CD1 mice; settings: mice; for ED50: Mus musculus, 0.5 h; for Metrazol (ip) ED50: 30 min
Procedure: Selected compounds of the invention were tested for their ability to reduce metrazol-induced convulsions in mice (Swinyard, E. A. J. Am. Pharm Assoc. 1949, 38, 201). Male CD1 mice, were fasted at least 16 hours, were divided into equal groups and test compounds or vehicle were administered parenterally. Water was not withheld except during the period of observations. At the time of suspected peak activity, anti-pentylenetetrazol (anti-metrazol) activity was evaluated by the subcutaneous administration of the CD90 dose of metrazol (the dose of metrazol was determined from the dose-response curve producing clonic convulsions in 90% of animals that received the corresponding vehicle for this experiment). Metrazol was dissolved in 0.9% sodium chloride solution, and its dose volume was 10 ml/kg. Animals were housed individually for observation of clonic convulsions, tonic convulsions and death for a period of 30 min. Test compounds that blocked the clonic seizure component of the convulsion in at least 50% of the animals were considered active. The biological assay was considered to be valid if the effects of a known anticonvulsant (positive control) were detected, within the same experiment. Activity was reported as percent reduction of clonic convulsions from the vehicle group. The ED50 values of active compounds were calculated by the method of probits (Finney, D. J. 1971. Probit Analysis. London: Cambridge University Press) and are listed in Tables 1 to 5.

[4] = Table 3, minimum effective dose, read-out: Conflict MED
[5] = Table 3, parenteral, clonic convulsions, read-out: Antimetrazol ED50
[6] = Table 1, ip, minimum effective dose, >10 = active dose not determined, read-out: Conflict (ip) MED
[7] = Table 1, 25° C., 10-20 min, >10,000 = not active
[8] = Table 1, ip, clonic convulsions after sc CD90 metrazol, >30 = active dose not determined, read-out: Metrazol (ip) ED50
[9] = Table 5, minimum effective dose, read-out: Conflict MED
[10] = Table 5, parenteral, clonic convulsions, read-out: Antimetrazol ED50
[11] = Table 1, ip, minimum effective dose, >10 = active dose not determined
[12] = Table 1, ip, clonic convulsions after sc CD90 metrazol, >30 = active dose not determined

Compound: CC1CN2C(=C(C(=O)Nc3ccccc3)C1=O)N(C)c1ccccc12 (stereo not shown) [compound 134]
- minimal effective dose [1, 4]: > 10 mg/kg
- pIC50 ([2]; Table 3): 7.17
- ED50 [3, 5]: 3 mg/kg

Compound: CN(C)c1ccccc1NC(=O)C1=C2Nc3ccccc3N2CCC1=O [compound 87]
- minimal effective dose [1, 6]: 10 mg/kg
- pIC50 [2, 7]: 5.00
- ED50 [3, 8]: 10 mg/kg

Compound: O=C1CCN2C(=C1C(=O)Nc1cccc3ccoc13)Nc1ccccc12 [compound 51]
- minimal effective dose [1, 6]: 10 mg/kg
- pIC50 [2, 7]: 6.92
- ED50 [3, 8]: > 10 mg/kg

Compound: O=C1CCN2C(=C1C(=O)Nc1cc(F)ccc1F)Nc1ccccc12 [compound 98]
- minimal effective dose [1, 6]: > 30 mg/kg
- pIC50 [2, 7]: 7.92
- ED50 [3, 8]: > 30 mg/kg

Compound: CN(C)c1ccc(NC(=O)C2=C3N(CCCC2=O)c2ccccc2N3Cc2ccccc2)cc1 [compound 151]
- minimal effective dose [1, 9]: > 10 mg/kg
- pIC50 ([2]; Table 5): 4.91
- ED50 [3, 10]: > 10 mg/kg

Compound: O=C1CCCN2C(=C1C(=O)Nc1ccccc1F)N(Cc1ccccc1)c1ccccc12 [compound 148]
- minimal effective dose [1, 9]: > 10 mg/kg
- pIC50 ([2]; Table 5): 6.82
- ED50 [3, 10]: > 10 mg/kg

Compound: O=C1CCN2C(=C1C(=O)NCc1ccccc1)Nc1ccccc12 [compound 32]
- minimal effective dose [1, 6]: > 10 mg/kg
- pIC50 [2, 7]: 7.42
- ED50 [3, 8]: > 30 mg/kg

Compound: O=C1CCN2C(=C1C(=O)Nc1c(F)cc(F)cc1Br)Nc1ccccc12 [compound 103]
- minimal effective dose [1, 6]: > 10 mg/kg
- pIC50 [2, 7]: 5.92
- ED50 [3, 8]: > 10 mg/kg

Compound: CN1C2=C(C(=O)Nc3ccccc3)C(=O)CCN2c2ccccc21 [compound 120]
- minimal effective dose [1, 4]: < 1 mg/kg
- pIC50 ([2]; Table 3): 8.22
- ED50 [3, 5]: < 1 mg/kg

Compound: CN(C)c1cccc(NC(=O)C2=C3Nc4ccccc4N3CCC2=O)c1 [compound 34]
- minimal effective dose [1, 6]: > 10 mg/kg
- pIC50 [2, 7]: 7.43
- ED50 [3, 8]: 4 mg/kg

Compound: O=C1CCCN2C(=C1C(=O)Nc1ccncc1)N(Cc1ccccc1)c1ccccc12 [compound 154]
- pIC50 ([2]; Table 5): 5.17
- ED50 [3, 10]: > 10 mg/kg

Compound: COc1ccc2c(c1)NC1=C(C(=O)Nc3ccncc3)C(=O)CCN12 [compound 57]
- minimal effective dose [1, 6]: > 10 mg/kg
- pIC50 [2, 7]: 6.30
- ED50 [3, 8]: > 10 mg/kg

Compound: O=C1CCN2C(=C1C(=O)Nc1c(F)cccc1F)Nc1cc(F)ccc12 [compound 109]
- minimal effective dose [1, 6]: 3 mg/kg
- pIC50 [2, 7]: 8.89
- ED50 [3, 8]: 0.3 mg/kg

Compound: CNC(=O)C1=C2Nc3ccccc3N2CCC1=O [compound 102]
- minimal effective dose [1, 6]: > 10 mg/kg
- pIC50 [2, 7]: 6.40
- ED50 [3, 8]: > 10 mg/kg

Compound: CSc1cnccc1NC(=O)C1=C2Nc3ccccc3N2CCC1=O [compound 66]
- minimal effective dose [1, 6]: 10 mg/kg
- pIC50 [2, 7]: 5.48
- ED50 [3, 8]: 10 mg/kg

Compound: O=C1CCN2C(=C1C(=O)NN1CCOCC1)Nc1ccccc12 [compound 60]
- minimal effective dose [1, 6]: < 10 mg/kg
- pIC50 [2, 7]: 5.52
- ED50 [3, 8]: > 10 mg/kg

Compound: CN1C2=C(C(=O)Nc3c(F)cc(F)cc3F)C(=O)CCN2c2ccccc21 [compound 135]
- minimal effective dose [1, 4]: > 10 mg/kg
- pIC50 ([2]; Table 3): 7.89
- ED50 [3, 5]: 10 mg/kg

Compound: O=C1CCN2C(=C1C(=O)Nc1c(Cl)cc(Cl)cc1Cl)Nc1ccccc12 [compound 101]
- minimal effective dose [1, 6]: > 10 mg/kg
- ED50 [3, 8]: > 10 mg/kg

Compound: O=C1CCN2C(=C1C(=O)Nc1c(F)cccc1F)Nc1cc(Cl)ccc12 [compound 114]
- minimal effective dose [1, 6]: 3 mg/kg
- pIC50 [2, 7]: 8.22
- ED50 [3, 8]: 1 mg/kg

Compound: O=C1CCN2C(=C1C(=O)Nc1cccc(Cl)c1)Nc1ccccc12 [compound 6]
- minimal effective dose [1, 6]: > 10 mg/kg
- pIC50 [2, 7]: 6.92
- ED50 [3, 8]: > 30 mg/kg

Compound: O=C1CCN2C(=C1C(=O)Nc1ccc(F)cc1F)N(Cc1ccccc1)c1ccccc12 [compound 129]
- minimal effective dose [1, 4]: > 10 mg/kg
- pIC50 ([2]; Table 3): 7.92
- ED50 [3, 5]: 1 mg/kg

Compound: O=C1CCN2C(=C1C(=O)Nc1ccc(F)cc1F)Nc1ccccc12 [compound 92]
- minimal effective dose [1, 6]: > 10 mg/kg
- pIC50 [2, 7]: 8.00
- ED50 [3, 8]: 1 mg/kg

Compound: CN(C)c1ccc(NC(=O)C2=C3N(C)c4ccccc4N3CCC2=O)cc1 [compound 124]
- minimal effective dose [1, 4]: 10 mg/kg
- pIC50 ([2]; Table 3): 7.54
- ED50 [3, 5]: 1 to 3 mg/kg

Compound: CCN1C2=C(C(=O)Nc3ccccc3F)C(=O)CCN2c2ccccc21 [compound 123]
- minimal effective dose [1, 4]: 0.3 mg/kg
- pIC50 ([2]; Table 3): 8.68
- ED50 [3, 5]: 0.01 mg/kg

Compound: CN(C)c1ccc(NC(=O)C2=C3Nc4ccccc4N3CCC2=O)c(F)c1 [compound 86]
- pIC50 [2, 7]: 6.92
- ED50 [3, 8]: 1 mg/kg

Compound: O=C1CCN2C(=C1C(=O)Nc1ccc(Br)cc1)Nc1ccccc12 [compound 44]
- minimal effective dose [1, 6]: > 10 mg/kg
- pIC50 [2, 7]: 6.89
- ED50 [3, 8]: 3 mg/kg

Compound: 1,2-Dihydro-3-hydroxy-N-phenylpyrido(1,2-a)benzimidazole-4-thiocarboxamide [CP 117]
- Conflict (ip) MED [1, 11]: 10 mg/kg
- pIC50 [2, 7]: 7.34
- Metrazol (ip) ED50 [3, 12]: > 30 mg/kg

Compound: CN1C2=C(C(=O)Nc3ccccc3F)C(=O)CCN2c2ccccc21 [compound 122]
- minimal effective dose [1, 4]: 0.03 mg/kg
- pIC50 ([2]; Table 3): > 9.00
- ED50 [3, 5]: 0.03 mg/kg

Compound: N-(2-Fluorophenyl)-6-methyl-4-oxo-1,2,3,4-tetrahydro-6H-azepino(1,2-a)benzimidazol-5-carboxamide [CP 147]
- Conflict (ip) MED [1, 11]: 10 mg/kg
- pIC50 [2, 7]: 7.29
- Metrazol (ip) ED50 [3, 12]: 5 mg/kg

Compound: COc1ccc2c(c1)NC1=C(C(=O)Nc3ccccc3)C(=O)CCN12 [compound 12]
- minimal effective dose [1, 6]: > 10 mg/kg
- pIC50 [2, 7]: 7.40
- ED50 [3, 8]: 3 mg/kg

Compound: CCCN1C2=C(C(=O)Nc3ccccc3)C(=O)CCN2c2ccccc21 [compound 136]
- minimal effective dose [1, 4]: 10 mg/kg
- pIC50 ([2]; Table 3): 8.60
- ED50 [3, 5]: 1 mg/kg

Compound: 1,2-Dihydro-5-ethyl-3-oxo-N-(2-fluorophenyl)-pyrido(1,2-a)benzimidazole-4-carboxamide [CP 123]
- Conflict (ip) MED [1, 11]: 1 mg/kg
- pIC50 [2, 7]: 6.21
- Metrazol (ip) ED50 [3, 12]: 5 mg/kg

Compound: O=C1CCN2C(=C1C(=O)Nc1ccc3[nH]nnc3c1)Nc1ccccc12 [compound 73]
- minimal effective dose [1, 6]: > 10 mg/kg
- pIC50 [2, 7]: 6.80
- ED50 [3, 8]: > 10 mg/kg

Compound: O=C1CCN2C(=C1C(=O)Nc1ccncc1F)Nc1cc(F)ccc12 [compound 110]
- pIC50 [2, 7]: 7.92

Compound: O=C1CCN2C(=C1C(=O)NCc1ccncc1)Nc1ccccc12 [compound 59]
- minimal effective dose [1, 6]: > 10 mg/kg
- pIC50 [2, 7]: 7.19
- ED50 [3, 8]: > 10 mg/kg

Compound: O=C1CCN2C(=C1C(=O)Nc1ccc(F)cc1)Nc1ccccc12 [compound 45]
- minimal effective dose [1, 6]: 10 mg/kg
- pIC50 [2, 7]: 6.37
- ED50 [3, 8]: > 30 mg/kg

Compound: CN1C2=C(C(=O)Nc3ccccc3F)C(=O)CCCN2c2ccccc21 [compound 147]
- minimal effective dose [1, 9]: > 10 mg/kg
- pIC50 ([2]; Table 5): 7.66
- ED50 [3, 10]: > 10 mg/kg

Compound: Nc1ccc(NC(=O)C2=C3Nc4ccccc4N3CCC2=O)cc1 [compound 18]
- minimal effective dose [1, 6]: > 10 mg/kg
- pIC50 [2, 7]: 4.89
- ED50 [3, 8]: 3 mg/kg

Compound: CCOC(=O)c1ccc(NC(=O)C2=C3Nc4ccccc4N3CCC2=O)cc1 [compound 27]
- minimal effective dose [1, 6]: < 10 mg/kg
- pIC50 [2, 7]: < 5.00
- ED50 [3, 8]: > 30 mg/kg

Compound: O=C1CCN2C(=C1C(=O)Oc1ccccc1)Nc1ccccc12 [compound 118]
- pIC50 ([2]; Table 2): 6.70
- ED50 ([3]; Table 2, ip, clonic convulsions, read-out: Antimetrazol (ip) ED50): 3 mg/kg

Compound: O=C1CCN2C(=C1C(=O)Nc1cccnc1F)Nc1ccccc12 [compound 116]
- minimal effective dose [1, 6]: > 10 mg/kg
- ED50 [3, 8]: 2 mg/kg

Compound: O=C1CCN2C(=C1C(=O)Nc1ccc(F)cc1F)Nc1cc(F)ccc12 [compound 111]
- pIC50 [2, 7]: 8.48

Compound: O=C1CCN2C(=C1C(=O)Nc1c(Cl)cccc1Cl)Nc1cc(F)ccc12 [compound 112]
- pIC50 [2, 7]: 7.00

Compound: O=C1CCN2C(=C1C(=O)Nc1ccccc1)Nc1cc(C(F)(F)F)ccc12 [compound 16]
- pIC50 [2, 7]: 6.02

Compound: CC1CN2C(=C(C(=O)Nc3ccccc3F)C1=O)N(C)c1ccccc12 (stereo not shown) [compound 132]
- minimal effective dose [1, 4]: < 10 mg/kg
- ED50 [3, 5]: 1 mg/kg
